This note sets out measurements from patent publication US7868014B2, “1-(hetero)aryl-3-amino-pyrrolidine derivatives for use as mGluR3 antagonists” (Eli Lilly and Company, priority 2004, dated 2011).

For one experiment, the target named is T1, human mGluR3 (Homo sapiens, UniProt Q14832).
T1 construct: expressed in transfected cells; host or cells: AV12 cells (adenovirus-transformed Syrian hamster cell line) stably expressing RGT and GLT, co-transfected with Galpha15
In words: Antagonism of glutamate-induced increase in intracellular calcium (FLIPR) in mGluR3-expressing AV12 cells. The format is cell-based. As to conditions: antagonism of 50 μM glutamate-induced calcium response, AV12 cells expressing human mGluR3 and Gα15, Fluo-3AM. Here is the method:
Antagonism of Glutamate-Induced Increase in Intracellular Calcium with a mGluRs Expressing Cell Line
Introduce human mGluR3 and the promiscuous G-protein, Galpha15 (Gα15) into AV12 cells (an adenovirus-transformed Syrian hamster cell line) that stably express RGT (Rat Glutamate Transporter) and GLT (Glutamate Like Transporter). Maintain the expression of these four exogenous genes by culturing the cells in DMEM (Gibco, 11960-051) supplemented with 5% dialyzed fetal bovine serum, 2 mM glutamine, 1 mM sodium pyruvate, 10 mM HEPES, 100 μg/mL G418, 1 μg/mL puromycin, 1 μg/mL blastocidin, and 100 μg/mL zeocin. Passage confluent cultures weekly. The expression of Gα15 allows the change of the signaling pathway of the mGlu3 receptor to one that can be easily monitored through the release of intracellular calcium before and after the addition of drugs on a Fluorometric Imaging Plate Reader (i.e. FLIPR, Molecular Devices). Use the following buffers throughout as the Assay Buffer: HBSS (BioWhittaker, 10-527F) supplemented with 20 mM HEPES (Biowhittaker, 17-737E) at pH 7.4. Prepare a stock solution of 4 mM Fluo-3AM (Molecular Probes, F-1241), a calcium sensitive dye by adding 2.21 mL of 20% pluronate in DMSO to a vial containing 10 mg of Fluo-3AM. Sonicate the solution for 30 minutes to facilitate solubilization of the Fluo-3AM and then store at −20° C. Prepare the working solution of 8 μM Fluo-3AM by diluting the stock Fluo-3AM (4 mM) 500-fold into Assay Buffer. Harvest cells 24 h prior to assay using Hank's based cell dissociation solution (Specialty Media, a division of Cell & Molecular Technologies, S-004-B) and plate at a density of 50,000 cells per well in a 96-well poly-D-lysine treated black walled, clear bottom plate (Becton Dickinson, 356640). Incubate cells with 8 μM Fluo-3AM (50 μL per well) for 2 hours at 25° C. Following the dye-loading of the cells, remove the 8 μM Fluo-3AM and replace with Assay Buffer pre-warmed to 37° C. (50 μL per well). Ready the cells for assay on the FLIPR. Set the stage of the FLIPR to 34.5° C. prior to initiation of the assay. Perform a two addition FLIPR assay. Pre-warm the reagents for both additions (compounds and glutamate) to 37° C. prior to initiation of the assay. Add the test compound to the cell plate (50 μL per well) after taking an initial fluorescent read of the cell plate for 10 seconds. Test compounds in a 10 point concentration response curve starting at a final concentration on the cells of 12.5 μM with 3-fold dilutions in Assay Buffer/1.25% DMSO. Collect data every second for the first 30 seconds and then every 3 seconds until the second addition made at 2 minutes. Perform the second addition of 100 μM glutamate in Assay Buffer (100 μL per well for a final glutamate concentration of 50 μM on the cells) 2 minutes after the addition of compound. Collect the second addition data every second for 30 seconds and then every 3 seconds until the end of the run at total time of 3.25 minutes. Measure the response as maximal peak height in Relative Fluorescent Units (RFUs). Define the assay window as the maximal response obtained by 50 μM glutamate minus the response obtained by buffer alone. Express the results as a percent of the assay window.
In general terms: Calcium assays in cells follow changes in intracellular calcium, usually with a dye or a luminescent sensor.

Another experiment deals with male Sprague-Dawley rats. In words: Rat dural plasma protein extravasation (PPE) model. The format is in vivo. As to conditions: 60 min before trigeminal ganglion stimulation, dose that gives an extravasation ratio of approximately 1. Here is the method:
Rat Dural Plasma Protein Extravasation (PPE) Model
Prepare 100 μg/ml stock solution of test compound in a DMSO/saline (20%/80% v/v) solution and make subsequent dilutions with saline. Dose male Sprague-Dawley rats from Harlan Laboratories (250-350 g) with test compound or saline vehicle by oral gavage (2 mL/kg) or intravenous tail-vein injection (1 mL/kg) 45 minutes prior to administration of anesthesia and placement in a stereotaxic frame for implantation of stimulating electrodes. The rats dosed via the oral route are fasted overnight prior to dosing. Fifteen minutes prior to trigeminal ganglion stimulation, the rats are anesthetized with Nembutal (60 mg/kg, ip.) and placed in a stereotaxic frame (David Kopf Instruments) with the incisor bar set at −2.5 mm. […]
A fluorescence microscope (Zeiss) equipped with a grating monochromator and a spectrophotometer is used to quantify the amount of FITC-BSA dye in each dural sample. […] This facilitates the computer-controlled movement of the stage, with fluorescence measurements at 25 points (500 μm steps) on each dural sample. […] The extravasation ratio (i.e. the ratio of the amount of extravasation in the dura from the stimulated side compared to the unstimulated side) is calculated. […]

pIC50: −log10 of the molar value. Structures can show the parent of a compound that is named as a salt.

T1 sequence (Q14832 23-879): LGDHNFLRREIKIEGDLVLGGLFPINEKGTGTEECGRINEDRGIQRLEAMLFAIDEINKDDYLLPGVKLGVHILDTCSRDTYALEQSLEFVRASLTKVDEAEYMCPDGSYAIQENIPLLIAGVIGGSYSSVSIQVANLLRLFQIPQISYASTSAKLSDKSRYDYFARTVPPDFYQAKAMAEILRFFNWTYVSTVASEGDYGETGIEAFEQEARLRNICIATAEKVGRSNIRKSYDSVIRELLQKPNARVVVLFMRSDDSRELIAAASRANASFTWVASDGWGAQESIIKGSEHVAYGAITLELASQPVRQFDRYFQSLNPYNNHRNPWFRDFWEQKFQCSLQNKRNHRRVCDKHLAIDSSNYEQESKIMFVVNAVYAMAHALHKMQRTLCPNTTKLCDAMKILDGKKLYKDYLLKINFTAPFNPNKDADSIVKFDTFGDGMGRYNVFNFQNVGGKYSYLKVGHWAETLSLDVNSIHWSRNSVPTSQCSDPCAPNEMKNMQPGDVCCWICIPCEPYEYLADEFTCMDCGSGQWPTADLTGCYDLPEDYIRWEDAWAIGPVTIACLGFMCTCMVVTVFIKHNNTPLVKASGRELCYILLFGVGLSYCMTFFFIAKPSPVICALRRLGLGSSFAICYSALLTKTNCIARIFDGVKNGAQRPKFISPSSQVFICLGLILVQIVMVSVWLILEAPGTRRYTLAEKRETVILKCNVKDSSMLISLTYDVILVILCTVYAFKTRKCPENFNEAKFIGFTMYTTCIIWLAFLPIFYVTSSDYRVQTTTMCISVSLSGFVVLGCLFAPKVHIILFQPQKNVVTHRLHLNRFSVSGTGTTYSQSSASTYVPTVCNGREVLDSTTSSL

Consider `O=[N+]([O-])c1ccc(N2CC[C@H](NCc3ccc(Cl)cc3Cl)C2)nc1` [Example 1, (S)-(2,4-Dichlorobenzyl)-[1-(5-nitropyridin-2-yl)-pyrrolidin-3-yl]-amine], for which the pIC50 (usually the IC50 on a negative log10 scale, so that one unit is a factor of ten) on human mGluR3 was 6.72.
With `CC(=O)c1ccc(N2CC[C@H](NCc3ccc(Cl)cc3Cl)C2)s1` [Example 6, (S)-1-{5-[3-(2,4-Dichlorobenzylamino)-pyrrolidin-1-yl]-thiophen-2-yl}-ethanone], the pIC50 on human mGluR3 is 5.41.
With `Clc1ccc(CN[C@H]2CCN(c3ccc(I)cn3)C2)c(Cl)c1` [Example 23, (S)-(2,4-Dichlorobenzyl)-[1-(5-iodopyridin-2-yl)-pyrrolidin-3-yl]-amine hydrochloride], the negative logarithm of the IC50 (pIC50) on human mGluR3 is 6.22.
`Clc1ccc(CN[C@H]2CCN(c3ncc(Br)cn3)C2)c(Cl)c1` [Example 28, (S)-[1-(5-Bromopyrimidin-2-yl)-pyrrolidin-3-yl]-(2,4-dichlorobenzyl)-amine]: the pIC50 at human mGluR3 is 6.47. Also, the “ID100 (μg/mL) i.v.” value in the experiment on male Sprague-Dawley rats (i.v. (tail-vein injection)) was 3 µg/mL. For the same molecule, the “ID100 (μg/mL) p.o.” value in the experiment on male Sprague-Dawley rats (p.o. (oral gavage)) stood at 3 µg/mL.
Take `Fc1ccc(N2CC[C@H](NCc3ccccc3I)C2)cn1` [Example 59, (S)-[1-(6-Fluoropyridin-3-yl)-pyrrolidin-3-yl]-(2-iodobenzyl)-amine hydrochloride]: on human mGluR3, the negative logarithm of the IC50 (pIC50) is 5.24.
As for `C#Cc1ccc(N2CC[C@H](NCc3ccc(Cl)cc3Cl)C2)nc1` [Example 87, (S)-(2,4-Dichlorobenzyl)-[1-(5-ethynylpyridin-2-yl)-pyrrolidin-3-yl]-amine], the pIC50 on human mGluR3 is 6.84.
As to `FC1CN(c2ncc(Br)cn2)CC1NCc1ccc(Cl)cc1Cl` (centres unmarked) [Example 101, [1-(5 -Bromopyrimidin-2-yl)-4-fluoropyrrolidin-3-yl]-(2,4-dichlorobenzyl)-amine hydrochloride], the pIC50 on human mGluR3 was 5.31.
For the molecule `Clc1ccc(CN[C@H]2CCN(c3ccc(-c4ccccc4)cn3)C2)c(Cl)c1` [Example 108, (S)-(2,4-Dichlorobenzyl)-[1-(5-phenylpyridin-2-yl)-pyrrolidin-3-yl]-amine], the negative logarithm of the IC50 (pIC50) at human mGluR3 was 5.64.
Turning to `FC(F)(F)c1ccc(CN[C@H]2CCN(c3ncc(Br)cn3)C2)c(Cl)c1` [Example 112, (3S)-[1-(5-Bromopyrimidin-2-yl)-pyrrolidin-3-yl]-(2-chloro-4-trifluoromethylbenzyl)-amine], at human mGluR3, the negative-log IC50 (pIC50) was 5.78.
On the same count and under the same terms, to `O=C1CN(c2ncc(Br)cn2)CC1NCc1ccc(Cl)cc1Cl` (centres unmarked) [Example 121, 1-(5-Bromopyrimidin-2-yl)-4-(2,4-dichlorobenzylamino)-pyrrolidin-3-one] belongs 5.77; to `N#Cc1cnc(N2CC[C@H](NCc3ccc(Cl)cc3Cl)C2)nc1` [Example 123, (S)-2-[3-(2,4-Dichlorobenzylamino)-pyrrolidin-1-yl]-pyrimidine-5-carbonitrile], 5.93; to `Clc1cnc(N2CC[C@H](NCc3ccc(Cl)cc3Cl)C2)nc1` [Example 134, (S)-[1-(5-Chloropyrimidin-2-yl)-pyrrolidin-3-yl]-(2,4-dichlorobenzyl)-amine], 7.11.
